Results from paper PMC3402541, “Guanidylation and Tail Effects in Cationic Antimicrobial Lipopeptoids” (PLoS ONE, 2012).
Converted amounts (≈) assume the structure as drawn. Where a SMILES comes first, the peptide text is derived from it. [ ]: non-standard residue; d: D form. The star is where a group is joined. Myristoyl = CCCCCCCCCCCCCC(=O)*; Nlys = NCCCCNCC(=O)O

Assays:
S.aureus ATCC 29213 = type: cell-based, Staphylococcus aureus; conditions: ATCC 29213, 24 h
Experimental: (§1) Antimicrobial activity of the purified lipopeptoids was determined without replication against a panel of clinically relevant and standard reference bacterial strains according to CLSI macrobroth standards. Stock solutions at 512 µg/mL were prepared in water, with DMSO as needed, and testing was performed in glass test tubes using Muller-Hinton broth and bacteria adjusted to 5 × 10^5 CFU/mL. Bacteria were incubated with the lipopeptoid of interest for 24 hr at 37°C prior to reading.
(§2) The bacteria Staphylococcus aureus ATCC 29213, methicillin-resistant S. aureus ATCC 33592, Staphylococcus epidermidis ATCC 14990, Enterococcus faecalis ATCC 29212, E. faecium ATCC 27270, Streptococcus pneumoniae ATCC 49619, Escherichia coli ATCC 25922, Pseudomonas aeruginosa ATCC 27853, and Klebsiella pneumoniae ATCC 13883 were acquired from the American Type Culture Collection (ATCC) and used as quality controls. The clinical strains methicillin-resistant S. epidermidis (MRSE) CAN-ICU 61589, E. coli CAN-ICU 61714, E. coli CAN-ICU 63074, P. aeruginosa CAN-ICU 62308, Stenotrophomonas maltophilia CAN-ICU 62584, Acinetobacter baumannii CAN-ICU 63169 were obtained from hospitals across Canada as part of the CAN-ICU studies, while methicillin-susceptible S. epidermidis (MSSE) 81388 was obtained from the 2008 CANWARD study.
(§3) After subculturing the relevant bacteria twice from frozen stock, in vitro activities of the antimicrobials were determined by macrobroth dilution methodology in accordance with the Clinical and Laboratory Standards Institute (CLSI) guidelines (3). The MICs were determined using glass test tubes (2 mL/tube) containing doubling antimicrobial dilutions of cation adjusted Mueller-Hinton broth inoculated to achieve a final concentration of approximately 5 x 10^5 CFU/mL, incubated in ambient air for 24 hr prior to reading. Colony counts were performed periodically to confirm inocula. The ATCC organisms […] ATCC 49619, Staphylococcus aureus ATCC 29213, Enterococcus faecalis ATCC 29212, Escherichia coli ATCC 25922, and Pseudomonas aeruginosa ATCC 27853 were used as quality control and to allow easy comparison to previously tested antimicrobials. Each test in this series was performed without replication. In our experience with cationic amphiphiles the results are accurate to within a single doubling.

MRSA ATCC 33592 = type: cell-based, methicillin-resistant S. aureus; conditions: ATCC 33592, 24 h
Experimental: as §1, §2, §3

MSSE 81388 CANWARD 2008 = type: cell-based, methicillin-susceptible S. epidermidis; conditions: 24 h
Experimental: as §1, §2, §3

MRSE CAN-ICU 61589 = type: cell-based, methicillin-resistant S. epidermidis; conditions: CAN-ICU 61589, 24 h
Experimental: as §1, §2, §3

E. faecalis ATCC 29212 = type: cell-based, Enterococcus faecalis; conditions: ATCC 29212, 24 h
Experimental: as §1, §2, §3

S.pneumoniae ATCC 49619 = type: cell-based, Streptococcus pneumoniae; conditions: ATCC 49619, 24 h
Experimental: as §1, §2, §3

P.aeruginosa ATCC 27853 = type: cell-based, Pseudomonas aeruginosa; conditions: ATCC 27853, 24 h
Experimental: as §1, §2, §3

[1] = system: P.aeruginosa CAN-ICU 62308; type: cell-based, Pseudomonas aeruginosa; conditions: CAN-ICU 62308, 24 h
Experimental: as §1, §2, §3

[2] = system: S. maltophilia CAN-ICU 62584; type: cell-based, Stenotrophomonas maltophilia; conditions: CAN-ICU 62584, 24 h
Experimental: as §1, §2, §3

[3] = system: A. baumannii CAN-ICU 63169; type: cell-based, Acinetobacter baumannii; conditions: CAN-ICU 63169, 24 h
Experimental: as §1, §2, §3

K.pneumoniae ATCC 13883 = type: cell-based, Klebsiella pneumoniae; conditions: ATCC 13883, 24 h
Experimental: as §1, §2, §3

ovine erythrocytes = experiment: Haemolytic assay; type: cell-based, sheep; conditions: ovine erythrocytes in Tris buffered saline, 30 minutes, absorbance of supernatant at 540 nm
Experimental: Mammalian cell toxicity was determined by measuring lysis of ovine erythrocytes, a standard model for human cell toxicity. Cells were prewashed with Tris buffered saline and then incubated with a variety of lipopeptoid concentrations for 30 minutes. Following centrifugation, lysis was evaluated by testing the absorbance of the solution at 540 nm, with 0.5% NH4OH used as a positive control.
Toxicity to mammalian cells was determined using a sheep red blood cell (erythrocyte) haemolytic assay (4). Erythrocytes were washed and resuspended in Tris buffered saline prior to use, at a concentration of 1.46 - 4.5 x 10^9 cells/mL (on average 3.08 x 10^9 cells/mL). The cell suspension was diluted with varying concentrations of antimicrobials, from 50 μg/mL to 1 mg/mL and incubated for thirty minutes (final erythrocyte concentration 4.08 x 10^8 cells/mL). The samples were centrifuged following treatment and the absorbance of the supernatant was measured at 540 nm. A solution of 0.5% […] was used as a positive control, with normal buffered solution as the negative control. The toxicity was assessed as a function of percent haemolysis.

E.coli ATCC 25922 = type: cell-based, Escherichia coli; conditions: ATCC 25922, 24 h
Experimental: as §1, §2, §3

E.coli CAN-ICU 61714 = type: cell-based, Escherichia coli; conditions: CAN-ICU 61714, 24 h
Experimental: as §1, §2, §3

E.coli CAN-ICU 63074 = type: cell-based, Escherichia coli; conditions: CAN-ICU 63074, 24 h
Experimental: as §1, §2, §3

E. faecium ATCC 27270 = type: cell-based; conditions: ATCC 27270, 24 h
Experimental: as §1, §2, §3

MIC S.aureus (S.aureus ATCC 29213) [µg/mL] | MIC S.aureus in the presence of 4% bovine serum albumin (S.aureus ATCC 29213) [µg/mL] | MIC MRSA (MRSA ATCC 33592) [µg/mL] | MIC MRSA in the presence of 4% bovine serum albumin (MRSA ATCC 33592) [µg/mL] | MIC MSSE (MSSE 81388 CANWARD 2008) [µg/mL] | MIC MSSE in the presence of 4% bovine serum albumin (MSSE 81388 CANWARD 2008) [µg/mL] | MIC MRSE (MRSE CAN-ICU 61589) [µg/mL] | MIC MRSE in the presence of 4% bovine serum albumin (MRSE CAN-ICU 61589) [µg/mL] | MIC E. faecalis (E. faecalis ATCC 29212) [µg/mL] | MIC E. faecalis in the presence of 4% bovine serum albumin (E. faecalis ATCC 29212) [µg/mL] | MIC S.pneumoniae (S.pneumoniae ATCC 49619) [µg/mL] | MIC P.aeruginosa (P.aeruginosa ATCC 27853) [µg/mL] | MIC P.aeruginosa in the presence of 4% bovine serum albumin (P.aeruginosa ATCC 27853) [µg/mL] | MIC P.aeruginosa [1] [µg/mL] | MIC P.aeruginosa in the presence of 4% bovine serum albumin [1] [µg/mL] | MIC S. maltophilia [2] [µg/mL] | MIC S. maltophilia in the presence of 4% bovine serum albumin [2] [µg/mL] | MIC A. baumannii [3] [µg/mL] | MIC A. baumannii in the presence of 4% bovine serum albumin [3] [µg/mL] | MIC K.pneumoniae (K.pneumoniae ATCC 13883) [µg/mL] | SMILES | further results
32 (≈ 59.2 µM) | 512 | 32 (≈ 59.2 µM) | 512 | 16 (≈ 29.6 µM) | 512 | 32 (≈ 59.2 µM) | 512 | 64 (≈ 118 µM) | >512 | 256 (≈ 473 µM) | 256 (≈ 473 µM) | >512 | 512 (≈ 947 µM) | >512 | 512 (≈ 947 µM) | >512 | 256 (≈ 473 µM) | >512 | 256 (≈ 473 µM) | CCCCCCCCCCCCCC(=O)N(CCCCN)CC(=O)NCC(=O)N(CCCCN)CC(N)=O [C14-NlysGNlys] (Myristoyl-[Nlys]-Gly-[Nlys]-NH2) | MIC S.pneumoniae in the presence of 4% bovine serum albumin (S.pneumoniae ATCC 49619): >512 µg/mL; MIC K.pneumoniae in the presence of 4% bovine serum albumin (K.pneumoniae ATCC 13883): >512 µg/mL; Percent haemolysis at 100µg/mL of compound (ovine erythrocytes): 2.90%; MIC E.coli (E.coli ATCC 25922): 128 µg/mL (≈ 237 µM); MIC E.coli in the presence of 4% bovine serum albumin (E.coli ATCC 25922): >512 µg/mL; MIC E.coli (E.coli CAN-ICU 61714): 128 µg/mL (≈ 237 µM); MIC E.coli in the presence of 4% bovine serum albumin (E.coli CAN-ICU 61714): >512 µg/mL; MIC E.coli (E.coli CAN-ICU 63074): 128 µg/mL (≈ 237 µM); MIC E.coli in the presence of 4% bovine serum albumin (E.coli CAN-ICU 63074): >512 µg/mL; MIC E. faecium (E. faecium ATCC 27270): 64 µg/mL (≈ 118 µM); MIC E. faecium in the presence of 4% bovine serum albumin (E. faecium ATCC 27270): 512 µg/mL
32 (≈ 52.3 µM) | 512 | 64 (≈ 105 µM) | 512 | 32 (≈ 52.3 µM) | 512 | 16 (≈ 26.1 µM) | 512 | 64 (≈ 105 µM) | 512 | 128 (≈ 209 µM) | 512 (≈ 837 µM) | >512 | 512 (≈ 837 µM) | 512 | >512 | >512 | 512 (≈ 837 µM) | >512 | 512 (≈ 837 µM) | CCCCCCCCCCCCCC(=O)N(CCCCN)CC(=O)N(CCCCN)CC(=O)N(CCCCN)CC(N)=O [C14-NlysNlysNlys] | MIC S.pneumoniae in the presence of 4% bovine serum albumin (S.pneumoniae ATCC 49619): >512 µg/mL; MIC K.pneumoniae in the presence of 4% bovine serum albumin (K.pneumoniae ATCC 13883): >512 µg/mL; Percent haemolysis at 100µg/mL of compound (ovine erythrocytes): 2.19%; MIC E.coli (E.coli ATCC 25922): 128 µg/mL (≈ 209 µM); MIC E.coli in the presence of 4% bovine serum albumin (E.coli ATCC 25922): >512 µg/mL; MIC E.coli (E.coli CAN-ICU 61714): 128 µg/mL (≈ 209 µM); MIC E.coli in the presence of 4% bovine serum albumin (E.coli CAN-ICU 61714): >512 µg/mL; MIC E.coli (E.coli CAN-ICU 63074): 128 µg/mL (≈ 209 µM); MIC E.coli in the presence of 4% bovine serum albumin (E.coli CAN-ICU 63074): >512 µg/mL; MIC E. faecium (E. faecium ATCC 27270): 64 µg/mL (≈ 105 µM); MIC E. faecium in the presence of 4% bovine serum albumin (E. faecium ATCC 27270): 512 µg/mL
8 (≈ 10.4 µM) | 512 | 16 (≈ 20.9 µM) | 512 | 8 (≈ 10.4 µM) | 256 | 8 (≈ 10.4 µM) | 512 | 16 (≈ 20.9 µM) | 512 | 64 (≈ 83.5 µM) | 64 (≈ 83.5 µM) | >512 | 64 (≈ 83.5 µM) | >512 | 128 (≈ 167 µM) | >512 | 128 (≈ 167 µM) | >512 | 256 (≈ 334 µM) | CCCCCCCCCCCCCCCC(=O)N(CCCCNC(=N)N)CC(=O)N(CCCCNC(=N)N)CC(=O)N(CCCCNC(=N)N)CC(N)=O [C16-NhargNhargNharg] | MIC K.pneumoniae in the presence of 4% bovine serum albumin (K.pneumoniae ATCC 13883): >512 µg/mL; Percent haemolysis at 100µg/mL of compound (ovine erythrocytes): 30.80%; MIC E.coli (E.coli ATCC 25922): 16 µg/mL (≈ 20.9 µM); MIC E.coli in the presence of 4% bovine serum albumin (E.coli ATCC 25922): 512 µg/mL; MIC E.coli (E.coli CAN-ICU 61714): 32 µg/mL (≈ 41.8 µM); MIC E.coli in the presence of 4% bovine serum albumin (E.coli CAN-ICU 61714): 512 µg/mL; MIC E.coli (E.coli CAN-ICU 63074): 32 µg/mL (≈ 41.8 µM); MIC E.coli in the presence of 4% bovine serum albumin (E.coli CAN-ICU 63074): >512 µg/mL; MIC E. faecium (E. faecium ATCC 27270): 16 µg/mL (≈ 20.9 µM); MIC E. faecium in the presence of 4% bovine serum albumin (E. faecium ATCC 27270): 512 µg/mL
16 (≈ 25 µM) | 512 | 32 (≈ 50 µM) | >512 | 8 (≈ 12.5 µM) | 512 | 8 (≈ 12.5 µM) | 512 | 32 (≈ 50 µM) | >512 | 128 (≈ 200 µM) | 128 (≈ 200 µM) | >512 | 128 (≈ 200 µM) | >512 | 256 (≈ 400 µM) | >512 | 256 (≈ 400 µM) | >512 | 128 (≈ 200 µM) | CCCCCCCCCCCCCCCC(=O)N(CCCCN)CC(=O)N(CCCCN)CC(=O)N(CCCCN)CC(N)=O [C16-NlysNlysNlys] | MIC S.pneumoniae in the presence of 4% bovine serum albumin (S.pneumoniae ATCC 49619): 512 µg/mL; MIC K.pneumoniae in the presence of 4% bovine serum albumin (K.pneumoniae ATCC 13883): >512 µg/mL; Percent haemolysis at 100µg/mL of compound (ovine erythrocytes): 67.69%; MIC E.coli (E.coli ATCC 25922): 32 µg/mL (≈ 50 µM); MIC E.coli in the presence of 4% bovine serum albumin (E.coli ATCC 25922): >512 µg/mL; MIC E.coli (E.coli CAN-ICU 61714): 64 µg/mL (≈ 100 µM); MIC E.coli in the presence of 4% bovine serum albumin (E.coli CAN-ICU 61714): >512 µg/mL; MIC E.coli (E.coli CAN-ICU 63074): 64 µg/mL (≈ 100 µM); MIC E.coli in the presence of 4% bovine serum albumin (E.coli CAN-ICU 63074): >512 µg/mL; MIC E. faecium (E. faecium ATCC 27270): 32 µg/mL (≈ 50 µM); MIC E. faecium in the presence of 4% bovine serum albumin (E. faecium ATCC 27270): >512 µg/mL
